This note sets out measurements from publication PMC10914727 (Nature Communications, 2024).

In general, IC50 refers to the concentration at which inhibition is half-maximal. A low value points to inhibition by little substance.

The target of test [1] is T1, endogenous GABAB receptor in hippocampal neurons (Mus musculus, UniProt Q9WV18).
T1 construct: gene Gabbr1; native receptor, primary hippocampal neurons
In words: cell-based. The arrangement: species or system primary hippocampal neurons; BRET G protein sensor (Galpha-Nluc / Venus-Ggamma2), agonist-induced change of BRET. The note with it: read-out: pEC50 hippocampal neurons (converted). An excerpt: (§1) Sequence of the linker (L) before and after Nluc was indicated. […] The raw data and p-values are available in source data provided as a Source Data file.

In test [2] the target is T2, endogenous GABAB receptor in cortical neurons (Mus musculus, UniProt Q9WV18).
T2 construct: gene Gabbr1; native receptor, primary cortical neurons
Kind of test: cell-based. The arrangement: species or system primary cortical neurons. The settings on record: read-out: pEC50 cortical neurons (converted).
Source text: as §1

Test [3] addresses T3, endogenous GABAB receptor in CGNs (Mus musculus, UniProt Q9WV18).
T3 construct: gene Gabbr1; native receptor, primary cerebellar granule neurons
In words: cell-based. Further details: species or system primary cerebellar granule neurons (CGNs); BRET G protein sensor (Galpha-Nluc / Venus-Ggamma2), agonist-induced change of BRET. The text has this:
(§2) Dotted line is the correlation of pEC50 determined with HEK293 cells. […] Data are mean ± SEM from at least three biologically independent experiments each performed in triplicate and analysed using one-way ANOVA with a Dunnett’s post-hoc multiple comparison test to determine significance. […] Sequence of the linker (L) before and after Nluc was indicated. […] The raw data and p-values are available in source data provided as a Source Data file.

The target of test [4] is T4, cannabinoid CB1 receptor (Mus musculus, UniProt P47746).
T4 construct: gene Cnr1; mouse CB1 cDNA expressed in HEK293 cells
Kind of test: cell-based. The arrangement: BRET between Galpha-Nluc and Venus-Ggamma2, agonist-induced Gi1 or GoA response of transfected mouse CB1. The note with it: read-out: Emax ± SEM (n) / Bay 59-3074. Here is the method:
Fig. 6 Difference of Gi1 and GoA responses by cannabinoid receptor CB1 agonists. a Detection of CB1 receptor in cell membranes of CGNs, mock-transfected HEK293 cells and HEK293 cells transfected with mouse CB1 cDNA (80 ng/well in 96-well plate), by western blotting. Values are mean ± SEM normalized as fold of CB1 expression in CGNs from three independent experiments. b Percentage of change in BRET ratio between Gα^Nluc and ^VenusGγ2 induced by [compound left out] in HEK293 cells (CB1 cDNA; 80 ng/well per 96-well plate) or CGNs for the indicated Gαi1, Gαi2, Gαi3, GαoA, GαoB or Gαz sensors (amounts of cDNA as in Fig. 2a). […] Data are analysed using unpaired t-test (two-tailed) to determine significance. ****p < 0.0001, *p < 0.05 and not significant (ns). c, d Change of BRET signal between Gα^Nluc and ^VenusGγ2 induced by the indicated CB1 receptor agonists in HEK293 cells and CGNs measured by Gi1 and GoA sensors. […] Inset, correlation of the agonist potencies (pEC50) between HEK293 cells and CGNs determined by the G protein sensors. Dotted lines are the correlation of pEC50 determined with HEK293 cells. […] Values are mean ± SEM normalized as fold of […] expression in CGNs from four independent experiments. c Expression of the Nluc-tagged Gα transfected in CGNs or in HEK293 cells in (a), measured by the luminescent signal at 480 nm. […]

Test [5] deals with T5, endogenous cannabinoid CB1 receptor in CGNs (Mus musculus, UniProt P47746).
T5 construct: gene Cnr1; native receptor, primary cerebellar granule neurons
The arrangement: species or system mouse primary cerebellar granule neurons (CGNs). The settings on record: agonist.

Test [6] has as its target T5, endogenous cannabinoid CB1 receptor in CGNs. In words: cell-based. Further details: species or system mouse primary cerebellar granule neurons (CGNs).
Test [7] addresses T4, cannabinoid CB1 receptor. In words: cell-based. The arrangement: species or system HEK293. An excerpt:
The raw data and p-values are available in source data provided as a Source Data file.

The target in test [8] is T6, GABAB receptor (GB1 subunit) (Rattus norvegicus, UniProt Q9Z0U4).
T6 construct: gene Gabbr1; HA-tagged rat GB1 with Flag-tagged rat GB2 expressed in HEK293 cells; with GABAB2 (GB2)
Kind of test: cell-based. The arrangement: species or system HEK293; BRET G protein sensor (Galpha-Nluc / Venus-Ggamma2), agonist-induced change of BRET.
Source text: as §2

Test [9] addresses T3, endogenous GABAB receptor in CGNs. In words: cell-based. The arrangement: species or system primary cerebellar granule neurons (CGNs). The note with it: with 20 uM baclofen. An excerpt: We have further validated these G protein sensors by measuring the potency of different orthosteric GABAB receptor ligands (Fig. 3a) in both CGNs and HEK293 cells. […] Similar results were obtained in the hippocampal neurons and cortical neurons (Supplementary Fig. 4b–d and Supplementary Table 1). […] Dotted line is the correlation of pEC50 determined with HEK293 cells. […] Data are mean ± SEM from at least three biologically independent experiments each performed in triplicate and analysed using one-way ANOVA with a Dunnett’s post-hoc multiple comparison test to determine significance. […] The raw data and p-values are available in source data provided as a Source Data file. Fig. 1 Design and validation of the Gi/o protein sensors in neurons. a Scheme of the BRET-based sensors to detect the activity of the endogenous GPCR in neurons. b Scheme of the Gαi/o^Nluc and ^VenusGγ2 constructs co-transfected in the neurons. Sequence of the linker (L) before and after Nluc was indicated. […] The data are representative of BRET ratios from five independent experiments. e Representative fluorescent images of Venus and DAPI in CGNs transfected with GαoA^Nluc and ^VenusGγ2 or in HEK293 cells transfected with GαoA^Nluc, Gβ1 and ^VenusGγ2 from three independent experiments. […] The data are representative of the mean ± SEM of BRET ratios from three independent experiments. […]

Where “and” joins values, the source holds several entries; their conditions need not be identical. Equal entries are not always repeated. Where two headings read alike, the source gives them in different places.

T5 sequence (P47746 whole entry): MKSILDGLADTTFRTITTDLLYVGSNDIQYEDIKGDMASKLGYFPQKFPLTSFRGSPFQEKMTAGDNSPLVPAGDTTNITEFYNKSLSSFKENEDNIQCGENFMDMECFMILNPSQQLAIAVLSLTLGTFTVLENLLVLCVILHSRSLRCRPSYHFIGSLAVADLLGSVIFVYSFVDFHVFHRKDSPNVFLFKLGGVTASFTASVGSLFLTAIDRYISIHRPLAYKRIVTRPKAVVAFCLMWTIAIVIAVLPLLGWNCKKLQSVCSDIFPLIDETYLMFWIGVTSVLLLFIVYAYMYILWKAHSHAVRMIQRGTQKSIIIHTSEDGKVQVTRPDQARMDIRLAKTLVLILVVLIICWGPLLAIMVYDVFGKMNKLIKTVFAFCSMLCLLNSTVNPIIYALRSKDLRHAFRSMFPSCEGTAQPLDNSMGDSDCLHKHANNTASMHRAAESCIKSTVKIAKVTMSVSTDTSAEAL
T4 sequence (P47746 whole entry): as above
T3 sequence (Q9WV18 whole entry): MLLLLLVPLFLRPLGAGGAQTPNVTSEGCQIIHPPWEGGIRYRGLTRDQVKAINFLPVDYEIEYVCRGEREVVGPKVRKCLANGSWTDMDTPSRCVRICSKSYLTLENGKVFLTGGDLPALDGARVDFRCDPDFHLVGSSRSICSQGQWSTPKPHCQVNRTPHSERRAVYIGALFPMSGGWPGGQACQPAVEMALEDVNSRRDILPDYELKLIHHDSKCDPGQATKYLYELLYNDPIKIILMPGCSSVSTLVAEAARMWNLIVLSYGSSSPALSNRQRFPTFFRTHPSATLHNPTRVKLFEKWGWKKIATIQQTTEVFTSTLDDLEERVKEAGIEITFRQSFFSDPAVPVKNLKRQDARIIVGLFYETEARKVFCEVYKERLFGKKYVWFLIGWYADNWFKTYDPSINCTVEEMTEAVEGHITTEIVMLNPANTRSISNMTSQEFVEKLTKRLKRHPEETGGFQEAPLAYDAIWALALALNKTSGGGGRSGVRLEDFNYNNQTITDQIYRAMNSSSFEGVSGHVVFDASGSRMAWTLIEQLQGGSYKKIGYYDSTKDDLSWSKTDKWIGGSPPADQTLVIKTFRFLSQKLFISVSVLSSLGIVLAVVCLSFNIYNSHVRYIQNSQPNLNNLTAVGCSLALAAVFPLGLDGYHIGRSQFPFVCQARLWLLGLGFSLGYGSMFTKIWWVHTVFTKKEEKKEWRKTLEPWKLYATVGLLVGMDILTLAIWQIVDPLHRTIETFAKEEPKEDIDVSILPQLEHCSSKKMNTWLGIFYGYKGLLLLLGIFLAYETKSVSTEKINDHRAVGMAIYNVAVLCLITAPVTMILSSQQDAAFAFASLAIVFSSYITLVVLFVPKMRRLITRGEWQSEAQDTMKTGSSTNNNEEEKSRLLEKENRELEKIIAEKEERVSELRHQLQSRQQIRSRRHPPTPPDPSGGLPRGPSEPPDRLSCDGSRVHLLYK
T3 sequence (Q80T41 whole entry partner): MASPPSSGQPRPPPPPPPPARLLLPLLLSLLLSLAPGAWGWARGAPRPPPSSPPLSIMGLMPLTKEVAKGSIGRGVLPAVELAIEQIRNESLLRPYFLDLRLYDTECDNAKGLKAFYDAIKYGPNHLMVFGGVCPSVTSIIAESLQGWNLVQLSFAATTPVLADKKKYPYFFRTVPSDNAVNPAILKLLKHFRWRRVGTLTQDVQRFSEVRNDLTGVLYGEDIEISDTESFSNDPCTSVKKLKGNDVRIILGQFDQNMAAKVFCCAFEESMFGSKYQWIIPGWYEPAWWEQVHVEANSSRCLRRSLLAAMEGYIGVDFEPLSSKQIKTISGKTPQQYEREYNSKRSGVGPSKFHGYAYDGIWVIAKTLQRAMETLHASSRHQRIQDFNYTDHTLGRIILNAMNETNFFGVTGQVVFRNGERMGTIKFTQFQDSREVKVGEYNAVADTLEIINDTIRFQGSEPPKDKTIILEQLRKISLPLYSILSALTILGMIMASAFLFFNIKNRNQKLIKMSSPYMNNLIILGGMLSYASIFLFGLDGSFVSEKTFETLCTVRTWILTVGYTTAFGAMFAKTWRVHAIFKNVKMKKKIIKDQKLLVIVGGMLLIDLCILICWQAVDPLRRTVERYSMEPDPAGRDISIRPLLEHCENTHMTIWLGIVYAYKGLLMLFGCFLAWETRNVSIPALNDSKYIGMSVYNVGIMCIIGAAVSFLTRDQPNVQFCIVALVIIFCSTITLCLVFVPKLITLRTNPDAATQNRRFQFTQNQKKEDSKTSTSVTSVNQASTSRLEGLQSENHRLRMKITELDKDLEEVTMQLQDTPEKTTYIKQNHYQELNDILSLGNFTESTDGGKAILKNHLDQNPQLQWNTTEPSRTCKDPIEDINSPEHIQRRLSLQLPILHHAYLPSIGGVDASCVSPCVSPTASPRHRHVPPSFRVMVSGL
T2 sequence (Q9WV18 whole entry): as the sequence (Q9WV18 whole entry) above
T2 sequence (Q80T41 whole entry partner): as the sequence (Q80T41 whole entry partner) above
T1 sequence (Q9WV18 whole entry): as the sequence (Q9WV18 whole entry) above
T1 sequence (Q80T41 whole entry partner): as the sequence (Q80T41 whole entry partner) above
T6 sequence (Q9Z0U4 20-960): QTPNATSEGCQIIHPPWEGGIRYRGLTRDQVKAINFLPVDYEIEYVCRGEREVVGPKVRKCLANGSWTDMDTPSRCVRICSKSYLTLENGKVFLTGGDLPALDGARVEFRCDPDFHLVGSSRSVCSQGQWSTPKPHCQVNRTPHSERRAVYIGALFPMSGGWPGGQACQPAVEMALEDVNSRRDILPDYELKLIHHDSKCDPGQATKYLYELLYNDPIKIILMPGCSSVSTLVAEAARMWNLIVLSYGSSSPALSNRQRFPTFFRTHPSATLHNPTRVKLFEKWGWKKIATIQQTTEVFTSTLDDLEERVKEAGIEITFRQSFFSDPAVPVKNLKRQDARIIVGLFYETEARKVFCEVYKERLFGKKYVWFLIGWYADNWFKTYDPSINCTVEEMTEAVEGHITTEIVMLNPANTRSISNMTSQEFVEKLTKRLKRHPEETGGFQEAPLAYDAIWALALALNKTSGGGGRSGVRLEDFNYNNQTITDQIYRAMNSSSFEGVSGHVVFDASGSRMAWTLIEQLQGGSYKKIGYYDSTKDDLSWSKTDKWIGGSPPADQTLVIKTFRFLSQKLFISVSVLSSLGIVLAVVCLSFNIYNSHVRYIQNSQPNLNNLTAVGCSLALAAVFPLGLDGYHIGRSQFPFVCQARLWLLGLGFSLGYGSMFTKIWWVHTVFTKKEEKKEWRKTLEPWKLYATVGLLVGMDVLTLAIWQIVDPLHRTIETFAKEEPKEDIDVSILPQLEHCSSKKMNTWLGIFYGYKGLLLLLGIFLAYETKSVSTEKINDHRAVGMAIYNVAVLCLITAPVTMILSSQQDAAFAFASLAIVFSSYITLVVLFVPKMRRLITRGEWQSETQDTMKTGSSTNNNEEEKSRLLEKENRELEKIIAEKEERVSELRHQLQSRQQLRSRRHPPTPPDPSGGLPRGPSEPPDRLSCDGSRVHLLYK
T6 sequence (O88871 41-940 partner): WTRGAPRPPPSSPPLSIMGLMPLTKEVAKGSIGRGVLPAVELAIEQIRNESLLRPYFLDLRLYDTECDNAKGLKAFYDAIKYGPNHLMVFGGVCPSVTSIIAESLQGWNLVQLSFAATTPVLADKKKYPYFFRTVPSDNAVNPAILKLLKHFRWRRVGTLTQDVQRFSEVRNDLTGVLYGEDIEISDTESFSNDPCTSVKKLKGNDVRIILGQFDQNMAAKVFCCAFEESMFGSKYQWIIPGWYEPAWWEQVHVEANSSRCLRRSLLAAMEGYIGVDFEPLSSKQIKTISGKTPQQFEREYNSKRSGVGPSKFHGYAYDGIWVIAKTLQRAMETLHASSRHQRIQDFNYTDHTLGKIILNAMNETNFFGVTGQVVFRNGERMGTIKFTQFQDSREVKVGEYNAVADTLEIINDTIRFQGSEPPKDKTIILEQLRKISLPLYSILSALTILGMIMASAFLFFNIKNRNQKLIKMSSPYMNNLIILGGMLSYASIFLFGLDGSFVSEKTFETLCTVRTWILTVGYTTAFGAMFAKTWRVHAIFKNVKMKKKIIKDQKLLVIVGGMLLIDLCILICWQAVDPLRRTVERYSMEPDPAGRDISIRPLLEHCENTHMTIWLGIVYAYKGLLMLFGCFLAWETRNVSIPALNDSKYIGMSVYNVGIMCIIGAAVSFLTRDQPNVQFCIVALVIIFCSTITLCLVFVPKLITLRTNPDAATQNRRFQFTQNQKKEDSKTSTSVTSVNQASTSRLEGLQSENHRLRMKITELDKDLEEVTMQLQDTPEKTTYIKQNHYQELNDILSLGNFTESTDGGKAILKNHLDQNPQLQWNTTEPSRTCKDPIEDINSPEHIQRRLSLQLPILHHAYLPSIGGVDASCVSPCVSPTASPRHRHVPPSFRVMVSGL

On to `NCC(CC(=O)O)c1ccc(Cl)cc1` (stereo not drawn) [baclofen], for which the EC50 in [1] (Gi1 sensor) was 1020 nM; in test [1] (GoA sensor), 2630 nM; in test [2] (Gi1 sensor) it was 1120 nM; in test [2] (GoA sensor), 1780 nM; in [3] (Gi1 sensor), 4790 nM; in test [3] (GoA sensor), 2690 nM.
Consider `N#Cc1c(Oc2cccc(OS(=O)(=O)CCCC(F)(F)F)c2)cccc1C(F)(F)F` [Bay 59-3074], for which the Emax stood at 50.3% at cannabinoid CB1 receptor [4] (HEK293, B=Gi1, % of maximum response of reference agonist) and 56.3% at cannabinoid CB1 receptor [4] (HEK293, B=GoA, % of maximum response of reference agonist). For the same compound, the “Emax ± SEM (n) / Bay 59-3074” value in test [5] is 70.7 ± 1.1 (4) and 42.1 ± 3.9 (3). Further, the EC50 in [6] (pEC50 ± SEM (n) / Bay 59-3074) was 339 nM and 631 nM; on cannabinoid CB1 receptor [7] (pEC50 ± SEM (n) / Bay 59-3074), 708 nM and 1170 nM.
As for `CCCCCCC(C)(C)c1ccc([C@@H]2C[C@H](O)CC[C@H]2CCCO)c(O)c1` [CP 55940], the EC50 in test [6] (pEC50 ± SEM (n) / CP 55940, B=Gi1, G protein BRET sensor (Gi1 or GoA), CGNs) was 6.61 nM; in test [6] (pEC50 ± SEM (n) / CP 55940, B=GoA, G protein BRET sensor (Gi1 or GoA), CGNs), 55 nM; at cannabinoid CB1 receptor [7] (pEC50 ± SEM (n) / CP 55940, B=Gi1, G protein BRET sensor (Gi1 or GoA), transfected HEK293) it was 126 nM; on cannabinoid CB1 receptor [7] (pEC50 ± SEM (n) / CP 55940, B=GoA, G protein BRET sensor (Gi1 or GoA), transfected HEK293), 166 nM.
For the compound `CP(=O)(O)CCCN` [SKF 97541], the EC50 in test [1] (Gi1 sensor) is 229 nM; in [1] (GoA sensor), 692 nM; in test [2] (Gi1 sensor), 302 nM; in test [2] (GoA sensor), 603 nM; in test [3] (Gi1 sensor), 2340 nM; in [3] (GoA sensor) it was 2040 nM.
In the case of `NCCC[PH](=O)O` [APPA], the EC50 in test [8] (pEC50 HEK293, Gi1 sensor) was 21.4 nM; in test [8] (pEC50 HEK293, GoA sensor), 17 nM; in test [3] (Gi1 sensor) it was 741 nM; in test [3] (GoA sensor), 692 nM.
On to `C[C@@H](NC[C@H](O)CP(=O)(O)CCCCCNC(=O)CCc1ccc(O)c(I)c1)c1cccc(C(=O)O)c1` [CGP64213], for which the IC50 in [9] (Gi1 sensor) is 28.2 nM; in [9] (GoA sensor) it was 25.7 nM.
